The values below come from patent publication US9951010B2, “Compounds as CRTH2 antagonist and uses thereof” (SUNSHINE LAKE PHARMA CO., LTD., priority 2014, dated 2018).

Where a name gives a salt, the structure may show the parent alone.

The target in the experiment is T1, CRTH2 receptor (Homo sapiens, UniProt Q9Y5Y4).
T1 construct: expressed in transfected cells; host or cells: CHO-K1/G cells
T1 sequence (Q9Y5Y4 1-395): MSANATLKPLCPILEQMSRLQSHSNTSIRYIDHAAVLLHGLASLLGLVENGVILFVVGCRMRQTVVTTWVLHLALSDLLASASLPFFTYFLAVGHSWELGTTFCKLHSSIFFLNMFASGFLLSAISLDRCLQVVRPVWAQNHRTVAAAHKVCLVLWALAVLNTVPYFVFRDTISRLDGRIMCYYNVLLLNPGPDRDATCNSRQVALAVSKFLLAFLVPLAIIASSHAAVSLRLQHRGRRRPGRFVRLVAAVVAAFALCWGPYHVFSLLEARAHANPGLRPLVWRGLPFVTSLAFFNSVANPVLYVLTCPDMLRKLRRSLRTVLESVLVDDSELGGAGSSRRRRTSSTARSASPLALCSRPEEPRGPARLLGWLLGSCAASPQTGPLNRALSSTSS
Put plainly: FLIPR detection of inhibitory activity against CRTH2 (CHO-K1/G cells, PGD2 as agonist). The experiment is classed as cell-based. The conditions noted are these: CHO-K1/G cells with stable expression of CRTH2 receptor, PGD2 at EC80, FLIPR. The procedure:
The test compound was weighed accurately and then dissolved in a suitable amount of DMSO to prepare a stock solution at a concentration of 10 mM; after clear and transparent, the stock solution was subpackaged and cryostoraged at −20° C. for use. Before testing, the test compound was diluted with balanced salt solution (HBSS buffer, containing 4-(2-hydroxyethyl)piperazine-1-ethanesulfonicacid) at a concentration of 20 mM) to 5 times testing concentration.
CHO-K1/G cells with stable expression of CRTH2 receptor were prepared to 5 times testing concentration and seeded into 384-microwell plate, and incubated in an incubator at 37° C./5% CO2. After incubating for 18 hours, to the cells in 384-microwell plate was added 20 μL of dye followed by the addition of 10 μL of prepared test compound solution. And then the cell plate was incubated in the incubator at 37° C./5% CO2 for 1 hour, at last which was balanced at rt for 15 min. After adding 12.5 μL of positive agonist (PGD2) at a concentration of 5 times EC80 to each well of the cell plate, the RFU (fluorescence intensity) value of the test compound was detected.
The data were recorded from ScreenWorks (version 3.1), and collected and analyzed by using Excel and GraphPad Prism 6 software to calculate the values of IC50.
As a reminder, the IC50 is the point on the concentration scale where inhibition reaches its midpoint. High values mean weaker potency, low ones greater potency. With `Cc1c(C2CCC(NC(=O)c3cccc4c(F)cccc34)CC2)c2cc(F)ccc2n1CC(=O)O` (stereo not drawn) [Example 10, 2-(5-fluoro-3-(4-(5-fluoro-1-naphthamido)cyclohexyl)-2-methyl-1H-indol-1-yl)acetic acid], the IC50 was found to be 545 nM. Under `Cc1c(C2CC(NC(=O)c3ccc4ccccc4n3)C2)c2cc(F)ccc2n1CC(=O)O` (stereo not drawn) [Example 21, 2-(5-fluoro-2-methyl-3-(3-(quinoline-2-carboxamido)cyclobutyl)-1H-indol-1-yl)acetic acid hydrochloride] stands 185 nM; under `Cc1c(C2CCC(NS(=O)(=O)c3ccc(F)cc3F)CC2)c2cc(F)ccc2n1CC(=O)O` (single isomer, unassigned) [Example 29b, 2-(3-(4-(2,4-difluorophenylsulfonamido)cyclohexyl)-5-fluoro-2-methyl-1H-indol-1-yl)acetic acid], 79.5 nM; under `Cc1c(C2CCC(NC(=O)c3cccc4ccccc34)CC2)c2cc(F)ccc2n1CC(=O)O` (stereo not drawn) [Example 3, 2-(3-(4-(1-naphthamido)cyclohexyl)-5-fluoro-2-methyl-1H-indol-1-yl)acetic acid], 265 nM. The figure for `Cc1c(C2CCN(S(=O)(=O)c3ccc(Cl)cc3F)CC2)c2cc(F)ccc2n1CC(=O)O` [Example 34, 2-(5-fluoro-3-(1-((4-chloro-2-fluorophenyl)sulfonyl)piperidin-4-yl)-2-methyl-1H-indol-1-yl) acetic acid] is 211 nM; for `Cc1c(C2CCN(S(=O)(=O)c3ccc(O)cc3)CC2)c2cc(F)ccc2n1CC(=O)O` [Example 37, 2-(5-fluoro-3-(1-((4-hydroxyphenyl)sulfonyl)piperidin-4-yl)-2-methyl-1H-indol-1-yl)acetic acid] it is 137 nM; for `Cc1c(C2CCN(S(=O)(=O)c3ccc(Cl)cc3Cl)CC2)c2cc(F)ccc2n1CC(=O)O` [Example 36, 2-(5-fluoro-3-(1-((2,4-dichlorophenyl)sulfonyl)piperidin-4-yl)-2-methyl-1H-indol-1-yl)acetic acid] it is 422 nM. The figure for `Cc1c(C2CCN(S(=O)(=O)c3ccc(Cl)cc3)CC2)c2cc(F)ccc2n1CC(=O)O` [Example 47, 2-(3-(1-((4-chlorophenyl)sulfonyl)piperidin-4-yl)-5-fluoro-2-methyl-1H-indol-1-yl)acetic acid] is 139 nM. As to `Cc1c(C2CCC(N(C)C(=O)c3ccc4ccccc4n3)CC2)c2cc(F)ccc2n1CC(=O)O` (single isomer, unassigned) [Example 17b, 2-(5-fluoro-2-methyl-3-(4-(N-methylquinoline-2-carboxamido)cyclohexyl)-1H-indol-1-yl)acetic acid hydrochloride], the IC50 was found to be 97.2 nM. For the molecule `Cc1c(C2=CCN(C(=O)NCc3ccc(F)cc3F)CC2)c2cc(F)ccc2n1CC(=O)O` [Example 9a, 2-(3-(1-((2,4-difluorobenzyl)carbamoyl)-1,2,3,6-tetrahydropyridin-4-yl)-5-fluoro-2-methyl-1H-indol-1-yl)acetic acid], the IC50 worked out at 192 nM. The figure for `Cc1c(C2CCC(NC(=O)c3ccc4cccnc4n3)CC2)c2cc(F)ccc2n1CC(=O)O` (single isomer, unassigned) [Example 20, 2-(3-(4-(1,8-naphthyridine-2-carboxamido)cyclohexyl)-5-fluoro-2-methyl-1H-indol-1-yl)acetic acid hydrochloride] is 39.8 nM; for `Cc1c(C2CCN(S(=O)(=O)c3cccc4ccccc34)CC2)c2cc(F)ccc2n1CC(=O)O` [Example 42, 2-(5-fluoro-2-methyl-3-(1-(naphthalen-1-ylsulfonyl)piperidin-4-yl)-1H-indol-1-yl)acetic acid] it is 283 nM. Under `Cc1c(C2=CCN(Cc3ccc4ccccc4n3)CC2)c2cc(F)ccc2n1CC(=O)O` [Example 8, 2-(5-fluoro-2-methyl-3-(1-(quinolin-2-yl)methyl-1,2,3,6-tetrahydropyridin-4-yl)-1H-indol-1-yl)acetic acid dihydrochloride] stands 657 nM. The figure for `Cc1c(C2CCN(S(=O)(=O)c3ccc(F)cc3Cl)CC2)c2cc(F)ccc2n1CC(=O)O` [Example 35, 2-(5-fluoro-3-(1-((2-chloro-4-fluorophenyl)sulfonyl)piperidin-4-yl)-2-methyl-1H-indol-1-yl) acetic acid] is 333 nM; for `Cc1c(C2CCC(N(C)S(=O)(=O)c3ccc(F)cc3)CC2)c2cc(F)ccc2n1CC(=O)O` (stereo not drawn) [Example 28, 2-(5-fluoro-3-(4-(4-fluoro-N-methylphenylsulfonamido)cyclohexyl)-2-methyl-1H-indol-1-yl) acetic acid] it is 138 nM; for `Cc1c(C2CCCN(S(=O)(=O)c3ccc(F)cc3)C2)c2cc(F)ccc2n1CC(=O)O` (stereo not drawn) [Example 40, 2-(5-fluoro-3-(1-((4-fluorophenyl)sulfonyl)piperidin-3-yl)-2-methyl-1H-indol-1-yl)acetic acid] it is 17.4 nM. Consider `Cc1c(C2=CCCN(C(=O)c3cccc4ccccc34)C2)c2cc(F)ccc2n1CC(=O)O` [Example 23, 2-(3-(1-(1-naphthoyl)-1,2,5,6-tetrahydropyridin-3-yl)-5-fluoro-2-methyl-1H-indol-1-yl)acetic acid], for which the IC50 turned out to be 866 nM. Turning to `Cc1c(C2CCN(S(=O)(=O)c3ccccc3)CC2)c2cc(F)ccc2n1CC(=O)O` [Example 46, 2-(5-fluoro-2-methyl-3-(1-(phenylsulfonyl)piperidin-4-yl)-1H-indol-1-yl)acetic acid], the IC50 came to 317 nM. This IC50 is about 2.7-fold lower than that of the molecule before. The figure for `Cc1c(C2CCC(NC(=O)NCc3ccc(F)cc3F)CC2)c2cc(F)ccc2n1CC(=O)O` (stereo not drawn) [Example 16, 2-(3-(4-(3-(2,4-difluorobenzyl)ureido)cyclohexyl)-5-fluoro-2-methyl-1H-indol-1-yl)acetic acid] is 969 nM; for `Cc1c(C2=CCCN(C(=O)c3ccc4ccccc4n3)C2)c2cc(F)ccc2n1CC(=O)O` [Example 7, 2-(5-fluoro-2-methyl-3-(1-(quinoline-2-carbonyl)-1,2,5,6-tetrahydropyridin-3-yl)-1H-indol-1-yl)acetic acid hydrochloride] it is 776 nM; for `Cc1c(C2CCN(C(=O)c3cccc4ccccc34)CC2)c2cc(F)ccc2n1CC(=O)O` [Example 2, 2-(3-(1-(1-naphthoyl)piperidin-4-yl)-5-fluoro-2-methyl-1H-indol-1-yl)acetic acid] it is 674 nM. The figure for `Cc1c(C2CCC(N(C)C(=O)c3ccc4ccccc4n3)CC2)c2cc(F)ccc2n1CC(=O)O` (single isomer, unassigned) [Example 17a, 2-(5-fluoro-2-methyl-3-(4-(N-methylquinoline-2-carboxamido)cyclohexyl)-1H-indol-1-yl)acetic acid hydrochloride] is 600 nM; for `Cc1c(C2CCN(S(=O)(=O)c3ccccc3F)CC2)c2cc(F)ccc2n1CC(=O)O` [Example 39, 2-(5-fluoro-3-(1-((2-fluorophenyl)sulfonyl)piperidin-4-yl)-2-methyl-1H-indol-1-yl)acetic acid] it is 106 nM; for `Cc1c(C2CCC(NC(=O)c3cccc4ncccc34)CC2)c2cc(F)ccc2n1CC(=O)O` (single isomer, unassigned) [Example 26b, 2-(5-fluoro-2-methyl-3-(4-(quinoline-5-carboxamido)cyclohexyl)-1H-indol-1-yl)acetic acid hydrochloride] it is 83.9 nM.
